Results reported in patent publication US4895956A, “3-aroyl-6,7-dihydro-5H-pyrrolo(1,2-c)imidazole-7-carboxylic acid derivatives” (Hisamitsu Pharmaceutical Co., Ltd., priority 1987, dated 1990).

Assays:
gastric mucous = experiment: Gastric mucous damage test in rats; type: in vivo, rat (male rats of Wistar strain); conditions: oral, rats fasted 18 hours
Description: Gastric mucous damage test in rats
Using male rats of Wistar strain each weighing approximately 160 g, compounds of the present invention were orally administered to the rats previously fasting for 18 hours. Three point five hours later, 1 ml/rat of a 5% Pontamin Sky Blue solution was intravenously injected to the rats. Rats were dissected to remove the stomachs therefrom. A 10 ml of 70% ethanol was injected into the stomachs to fix them, and the stomachs were cut and washed with a 10% hydrogen peroxide/ethanol mixed liquid and then visually observed to fine whether ulcers were formed therein.

[1] = test system: carrageenin-induced paw edema; experiment: Inhibitory actions on carrageenin-induced paw edema; type: in vivo, rat (male rats of Wistar strain); conditions: 50 mg/kg, oral, 60 min before 1% λ-carrageenin; 3 hours after induction; vs control group
Description: Inhibitory actions on carrageenin-induced paw edema
Using male rats of Wistar strain each weighing approximately 150 g, 0.1 ml of 1% λ-carrageenin was subcutaneously injected into the paw of each rat to induce the reaction. Since then, the volume of paw edema was measured in time course. Each compound of the present invention was orally administered to the rats 60 minutes before the induction of the reaction. As shown in the following Table, the results were expressed in terms of inhibitory percentage in comparison with those in control group at 3 hours after the induction of the reaction.

[2] = Acute toxicity test in mice; conditions: in vivo; male mouse, oral, 14 days observation
From the text: (§1) Acute toxicity test in rats and mice
(§2) Each group consisting 8 animals such as male Wistar rats weighing about 120 g and male ddY mice weighing about 25 g was used. Compounds of the present invention were orally administered to the animals. General symptoms, changes in body weight and lethality of the test animals had been observed over a period of time for 14 days after the oral administration.

[3] = Acute toxicity test in rats; conditions: in vivo; male rat, oral, 14 days observation
From the text: as §1, §2

[4] = test system: writhing induced by acetic acid; experiment: Inhibitory actions on the writhing induced by acetic acid in mice; type: in vivo, mouse (male ddY strain mice); conditions: 50 mg/kg, oral, 30 min before 0.6% acetic acid; writhing counted for 10 min, 5 min after acetic acid; vs control group
Description: Inhibitory actions on the writhing induced by acetic acid in mice
Male ddY strain mice weighing 20-24 g were used a group consisting 7-9 animals. Each compound was orally administered to mice. Thirty minutes later, 0.6% acetic acid was abdominally administered at a dose of 0.1 ml/10 g. The number of writhing was counted 5 minutes after the administration of the acetic acid for 10 minutes. The inhibitory percentage were determined by comparing the number of writhing to the control group.

Row | Compound | Ulcer formation (gastric mucous; 100 mg/kg) | Inhibition (inhibitory percentage of paw edema) [1] | LD50 at 336 h [2] | LD50 at 336 h [3] | Inhibition (inhibitory percentage of writhing) [4] | Ulcer formation (gastric mucous; 10 mg/kg)
1 | CC(=O)Oc1ccccc1C(=O)O [Aspirin, reference compound] | 6/6 |  |  |  |  | 
2 | O=C(c1ccccc1)c1nc(Br)c2n1CCC2C(=O)O (stereo not drawn) [Compound of Example 5, 3-benzoyl-1-bromo-6,7-dihydro-5H-pyrrolo[1,2-c]imidazole-7-carboxylic acid] | 0/6 | 48.4% | > 3000 mg/kg | > 5000 mg/kg | 87.5% | 
3 | O=C(c1ccccc1Cl)c1nc(Br)c2n1CCC2C(=O)O (stereo not drawn) [Compound of Example 9] | 0/6 | 50.1% | > 3000 mg/kg | > 5000 mg/kg | 83.3% | 
4 | COc1ccc(C(=O)c2ncc3n2CCC3C(=O)O)cc1 (stereo not drawn) [Compound of Example 15] | 0/6 | 53.9% | > 3000 mg/kg | > 5000 mg/kg | 86.3% | 
5 | O=C(c1ccc(Cl)cc1)c1nc(Br)c2n1CCC2C(=O)O (stereo not drawn) [Compound of Example 16] | 0/6 | 50.7% | > 3000 mg/kg | > 5000 mg/kg | 84.5% | 
6 | CC(C)c1ccc(C(=O)c2ncc3n2CCC3C(=O)O)cc1 (stereo not drawn) [Compound of Example 24] | 0/6 | 51.6% | > 3000 mg/kg | > 5000 mg/kg | 79.3% | 
7 | COc1ccc2c(c1)c(CC(=O)O)c(C)n2C(=O)c1ccc(Cl)cc1 [Indomethacine, reference compound] |  |  |  |  |  | 6/6
